Reference: patent US9492496B2, “Aminothiazoles and their uses” (Novartis AG, priority 2007, dated 2016)

System: prokaryotic transcription-translation (E. coli S30 extract)
Assay: In vitro assay for inhibition of prokaryotic transcription-translation (Promega E. coli S30 Extract System, pBESTluc luciferase readout)
Format: biochemical
Conditions: 2 uM compound, 2 h at 37° C., luciferase luminescence
Procedure: In vitro assay for inhibition of prokaryotic transcription-translation [as described in the following references: 1. Zubay, G. (1973) In vitro synthesis of protein in microbial systems. Annu. Rev. Genet. 7, 267.87. 2. Zubay, G. (1980) The isolation and properties of CAP, the catabolite gene activator. Meth. Enzymol. 65, 856.77]. Antibiotic and compound dilutions: stock solutions of compound to be assayed at 2 μM are 80 μM in 40% DMSO. Stock solutions of compounds to be assayed at 10 μM are 400 μM in 40% DMSO.
Assay setup and protocol for Promega E. coli S30 Extract System
The assay is performed as follows: pipet 3.5 μl of 286 ng/μl template DNA (pBESTluc™) into assay wells. Negative control wells receive sdH2O only. Transfer 0.5 μl of 40× compound stock solution to assay wells. Positive control wells (no compound) receive 0.5 μl 40% DMSO sdH2O. Pipet 16 μl of master mix into assay wells. Incubate plate for two hours at 37° C. Rapidly chill the assay plate on ice for five minutes to stop the reaction. Add an equal volume (20 μl) of room temperature Steady-Glo® Luciferase assay reagent to all assay wells. Incubate 20 minutes and read light emitted with luminometer. Results are reported as % inhibition a 2 μM or 10 μM.

Row | SMILES | % inh. @ 2 uM
1 | CNC(=O)C[C@@H]1NC(=O)c2csc(n2)-c2ccc(-c3nc(N(CCCCC(CCC(=O)O)C(=O)O)C(=O)O[C@H]4CC[C@H](C(=O)O)CC4)cs3)nc2-c2csc(n2)-c2csc(n2)[C@H]([C@@H](O)c2ccccc2)NC(=O)CNC(=O)c2nc(sc2COC)C(C(C)C)NC(=O)c2nc1sc2C (some centres unmarked) [Compound 28] | 2 uM = 77.0%
2 | CNC(=O)C[C@@H]1NC(=O)c2csc(n2)-c2ccc(-c3nc(N(CCCCC(=O)O)C(=O)O[C@H]4CC[C@H](C(=O)O)C[C@@H]4CCCCC(=O)O)cs3)nc2-c2csc(n2)-c2csc(n2)[C@H]([C@@H](O)c2ccccc2)NC(=O)CNC(=O)c2nc(sc2COC)C(C(C)C)NC(=O)c2nc1sc2C (some centres unmarked) [Compound 29] | 2 uM = 79.6%
3 | CNC(=O)C[C@@H]1NC(=O)c2csc(n2)-c2ccc(-c3nc(N(CCCCC(=O)O)C(=O)OCCC(CCCCC(=O)O)C(=O)O)cs3)nc2-c2csc(n2)-c2csc(n2)[C@H]([C@@H](O)c2ccccc2)NC(=O)CNC(=O)c2nc(sc2COC)C(C(C)C)NC(=O)c2nc1sc2C (some centres unmarked) [Compound 30] | 2 uM = 83.93%
4 | CNC(=O)C[C@@H]1NC(=O)c2csc(n2)-c2ccc(-c3nc(N(CCCC(CCCCCCC(=O)O)C(=O)O)C(=O)O[C@H]4CC[C@H](C(=O)O)CC4)cs3)nc2-c2csc(n2)-c2csc(n2)[C@H]([C@@H](O)c2ccccc2)NC(=O)CNC(=O)c2nc(sc2COC)C(C(C)C)NC(=O)c2nc1sc2C (some centres unmarked) [Compound 31] | 2 uM = 79.4%
5 | CNC(=O)C[C@@H]1NC(=O)c2csc(n2)-c2ccc(-c3nc(N(CCCCC(=O)O)C(=O)OCC(CCCCC(=O)O)CC(=O)O)cs3)nc2-c2csc(n2)-c2csc(n2)[C@H]([C@@H](O)c2ccccc2)NC(=O)CNC(=O)c2nc(sc2COC)C(C(C)C)NC(=O)c2nc1sc2C (some centres unmarked) [Compound 32] | 2 uM = 78.0%
6 | CNC(=O)C[C@@H]1NC(=O)c2csc(n2)-c2ccc(-c3nc(N(CCCCC(=O)O)C(=O)O[C@H]4CC[C@@](CCCCC(=O)O)(C(=O)O)CC4)cs3)nc2-c2csc(n2)-c2csc(n2)[C@H]([C@@H](O)c2ccccc2)NC(=O)CNC(=O)c2nc(sc2COC)C(C(C)C)NC(=O)c2nc1sc2C (some centres unmarked) [Compound 33] | 2 uM = 46.8%
7 | CNC(=O)C[C@@H]1NC(=O)c2csc(n2)-c2ccc(-c3nc(N(CCCCC(=O)O)C(=O)O[C@]4(CCCCC(=O)O)CC[C@@H](C(=O)O)CC4)cs3)nc2-c2csc(n2)-c2csc(n2)[C@H]([C@@H](O)c2ccccc2)NC(=O)CNC(=O)c2nc(sc2COC)C(C(C)C)NC(=O)c2nc1sc2C (some centres unmarked) [Compound 34] | 2 uM = 63.1%
8 | CNC(=O)C[C@@H]1NC(=O)c2csc(n2)-c2ccc(-c3nc(NC(=O)OCCC(CCCCC(=O)O)C(=O)O)cs3)nc2-c2csc(n2)-c2csc(n2)[C@H]([C@@H](O)c2ccccc2)NC(=O)CNC(=O)c2nc(sc2COC)C(C(C)C)NC(=O)c2nc1sc2C (some centres unmarked) [Compound 35] | 2 uM = 87.0%
